Measured values from patent US20230233690A1, “ANDROGEN RECEPTOR PROTEIN DEGRADERS” (THE REGENTS OF THE UNIVERSITY OF MICHIGAN, priority 2020, published 2023).

Molecular target: T1, AR protein (Homo sapiens, UniProt P10275)
T1 construct: endogenous in cells; host or cells: VCaP
T1 sequence (P10275 1-920): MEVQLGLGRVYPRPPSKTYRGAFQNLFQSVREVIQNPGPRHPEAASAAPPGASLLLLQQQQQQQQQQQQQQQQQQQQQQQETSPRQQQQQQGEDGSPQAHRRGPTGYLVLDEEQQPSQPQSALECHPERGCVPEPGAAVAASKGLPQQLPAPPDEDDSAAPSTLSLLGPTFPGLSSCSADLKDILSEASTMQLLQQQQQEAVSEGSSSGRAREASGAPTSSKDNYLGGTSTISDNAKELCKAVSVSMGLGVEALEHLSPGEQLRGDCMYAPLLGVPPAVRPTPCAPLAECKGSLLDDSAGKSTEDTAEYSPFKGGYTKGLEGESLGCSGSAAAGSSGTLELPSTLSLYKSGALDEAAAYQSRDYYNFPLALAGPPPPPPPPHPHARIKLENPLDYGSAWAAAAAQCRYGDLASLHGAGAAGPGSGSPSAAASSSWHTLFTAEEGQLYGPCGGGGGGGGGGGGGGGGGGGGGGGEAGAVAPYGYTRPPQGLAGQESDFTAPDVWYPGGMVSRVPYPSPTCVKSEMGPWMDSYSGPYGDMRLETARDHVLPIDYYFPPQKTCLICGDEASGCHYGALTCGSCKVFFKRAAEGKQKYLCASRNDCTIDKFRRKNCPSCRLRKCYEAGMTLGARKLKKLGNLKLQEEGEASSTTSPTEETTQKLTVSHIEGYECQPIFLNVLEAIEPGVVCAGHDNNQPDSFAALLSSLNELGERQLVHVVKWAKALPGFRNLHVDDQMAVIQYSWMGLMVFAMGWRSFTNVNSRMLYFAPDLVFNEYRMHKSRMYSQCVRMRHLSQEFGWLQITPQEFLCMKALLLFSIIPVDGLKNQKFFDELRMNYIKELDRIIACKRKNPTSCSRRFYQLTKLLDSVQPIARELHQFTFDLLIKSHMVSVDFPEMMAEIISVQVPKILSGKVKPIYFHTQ
Test: Western blotting of AR protein degradation in VCaP cells
Format: cell-based
Conditions: for AR protein degradation VCap 10 nM / AR protein degradation VCap 100 nM: 24 hr treatment
Experimental: The treated cells were lysed with RIPA buffer. […] GAPDH was used as a loading control.
Bands were quantified with ImageJ software. The relative numbers of each band obtained from normalization with its corresponding GAPDH level were compared with Prism 8 software. The DC50 values were produced from Prism 8, and the DC90 values were calculated with an equation=Bottom+(Top−Bottom)/(1+10^((Log EC50−X)*HillSlope) based on DC50 and Hillslope values.

| SMILES | AR protein degradation VCap 10 nM | AR protein degradation VCap 100 nM | % AR protein degradation in VCaP Cells (0.001 μM) | % AR protein degradation in VCaP Cells (0.01 μM) | % AR protein degradation in VCaP Cells (0.1 μM) | % AR protein degradation in VCaP Cells (1 μM) |
| --- | --- | --- | --- | --- | --- | --- |
| N#Cc1ccc(O[C@H]2CC[C@H](Nc3ccc(C(=O)N4CCN(C5CN(c6ccc7c(c6)C(=O)N(C6CCC(=O)NC6=O)C7=O)C5)CC4)cc3)CC2)cc1Cl (some centres unmarked) [Cpd. No. 17, 2-chloro-4-(((1r,4r)-4-((4-(4-(1-(2-(2,6-dioxopiperidin-3-yl)-1,3-dioxoisoindolin-5-yl)azetidin-3-yl)piperazinecarbonyl)phenyl)amino)cyclohexyl)oxy)benzonitrile] | B (>50% degradation but <90% (24 hr treatment)) | B (>50% degradation but <90% (24 hr treatment)) | – | – | – | – |
| CN(c1ccc(C#N)c(Cl)c1)[C@H]1CC[C@H](NC(=O)c2ccc(N3CCN(C4CN(c5ccc6c(c5)C(=O)N(C5CCC(=O)NC5=O)C6=O)C4)CC3)cc2)CC1 (some centres unmarked) [Cpd. No. 31, N-((1r,4r)-4-((3-chloro-4-cyanophenyl)(methyl)amino)cyclohexyl)-4-(4-(1-(2-(2,6-dioxopiperidin-3-yl)-1,3-dioxoisoindolin-5-yl)azetidin-3-yl)piperazin-1-yl)benzamide] | A (>90% degradation (24 hr treatment)) | A (>90% degradation (24 hr treatment)) | – | – | – | – |
| N#Cc1ccc(O[C@H]2CC[C@H](Nc3ccc(C(=O)N4CCN(C5CCN(c6ccc7c(c6)C(=O)N(C6CCC(=O)NC6=O)C7=O)CC5)CC4)cc3)CC2)cc1Cl (some centres unmarked) [Cpd. No. 12] | C (>10% degradation but <50% (24 hr treatment)) | A (>90% degradation (24 hr treatment)) | – | – | – | – |
| N#Cc1ccc(O[C@@H]2CCC[C@@H](NC(=O)c3ccc(N4CCC(N5CCN(c6ccc7c(c6)C(=O)N(C6CCC(=O)NC6=O)C7=O)CC5)CC4)cc3)CC2)cc1Cl (stereo partly drawn) [compound 227, N-((1R,4R)-4-(3-chloro-4-cyanophenoxy)cycloheptyl)-4-(4-(4-(2-(2,6-dioxopiperidin-3-yl)-1,3-dioxoisoindolin-5-yl)piperazin-1-yl)piperidin-1-yl)benzamide] | – | – | 22% | 36% | 34% | 43% |
| CN(c1ccc(C(=O)N2CCN(C3CCN(c4ccc5c(c4)C(=O)N(C4CCC(=O)NC4=O)C5=O)CC3)CC2)cc1)[C@H]1CC[C@H](Oc2ccc(C#N)c(Cl)c2)CC1 (some centres unmarked) [compound 14] | – | C (>10% degradation but <50% (24 hr treatment)) | – | – | – | – |
| N#Cc1ccc(O[C@H]2CC[C@H](NC(=O)c3ccc4c(c3)CCN(CC3CCN(c5ccc6c(c5)C(=O)N(C5CCC(=O)NC5=O)C6=O)CC3)C4)CC2)cc1Cl (some centres unmarked) [compound 9] | – | B (>50% degradation but <90% (24 hr treatment)) | – | – | – | – |
| N#Cc1ccc(O[C@H]2CC[C@H](NC(=O)c3ccc(NCCCCCCCCCNc4ccc5c(c4)C(=O)N(C4CCC(=O)NC4=O)C5=O)cc3)CC2)cc1Cl (some centres unmarked) [compound 215, N-((1r,4r)-4-(3-chloro-4-cyanophenoxy)cyclohexyl)-4-((9-((2-(2,6-dioxopiperidin-3-yl)-1,3-dioxoisoindolin-5-yl)amino)nonyl)amino)benzamide] | – | – | 6% | 35% | 58% | 53% |
| C[C@H]1C[C@@H](NC(=O)c2ccc(N3CCN(C4CCN(c5ccc6c(c5)C(=O)N(C5CCC(=O)NC5=O)C6=O)CC4)CC3)cc2)CC[C@@H]1Oc1ccc(C#N)c(Cl)c1 (some centres unmarked) [compound 25] | A (>90% degradation (24 hr treatment)) | A (>90% degradation (24 hr treatment)) | – | – | – | – |
| N#Cc1ccc(N[C@H]2CC[C@H](NC(=O)c3ccc(N4CCN(CC5CCN(c6ccc7c(c6)C(=O)N(C6CCC(=O)NC6=O)C7=O)CC5)CC4)cc3)CC2)cc1Cl (some centres unmarked) [compound 27] | A (>90% degradation (24 hr treatment)) | A (>90% degradation (24 hr treatment)) | – | – | – | – |
| N#Cc1ccc(O[C@H]2CC[C@H](Nc3ccc(C(=O)N4CCN(CC5CCN(c6ccc7c(c6)C(=O)N(C6CCC(=O)NC6=O)C7=O)CC5)CC4)cc3)CC2)cc1Cl (some centres unmarked) [compound 13] | C (>10% degradation but <50% (24 hr treatment)) | B (>50% degradation but <90% (24 hr treatment)) | – | – | – | – |
| CC(O)(CS(=O)(=O)c1ccc(N2CCN(C3CCN(c4ccc5c(c4)C(=O)N(C4CCC(=O)NC4=O)C5=O)CC3)CC2)cc1)C(=O)Nc1ccc(C#N)c(C(F)(F)F)c1 (centres unmarked) [compound 241, N-(4-cyano-3-(trifluoromethyl)phenyl)-3-((4-(4-(1-(2-(2,6-dioxopiperidin-3-yl)-1,3-dioxoisoindolin-5-yl)piperidin-4-yl)piperazin-1-yl)phenyl)sulfonyl)-2-hydroxy-2-methylpropanamide] | – | – | 7% | 13% | −2% | 27% |
| CN(c1ccc(C#N)c(Cl)c1)[C@H]1CC[C@H](NC(=O)c2ccc(N3CCN(CC4CCN(c5ccc6c(c5)C(=O)N(C5CCC(=O)NC5=O)C6=O)CC4)CC3)cc2)CC1 (some centres unmarked) [compound 29] | A (>90% degradation (24 hr treatment)) | A (>90% degradation (24 hr treatment)) | – | – | – | – |
| N#Cc1ccc(O[C@H]2CC[C@H](NC(=O)c3ccc(N4CCN(CC5CN(c6ccc7c(c6)C(=O)N(C6CCC(=O)NC6=O)C7=O)C5)CC4)cc3)CC2)cc1Cl (some centres unmarked) [compound 224, N-((1r,4r)-4-(3-chloro-4-cyanophenoxy)cyclohexyl)-4-(4-((1-(2-(2,6-dioxopiperidin-3-yl)-1,3-dioxoisoindolin-5-yl)azetidin-3-yl)methyl)piperazin-1-yl)benzamide] | – | – | 38% | 79% | 85% | 86% |
| N#Cc1ccc(O[C@H]2CC[C@H](NC(=O)c3ccc(N4CCN(C5CN(c6ccc7c(c6)C(=O)N(C6CCC(=O)NC6=O)C7=O)C5)CC4)cc3)CC2)cc1Cl (some centres unmarked) [Cpd. No. 22] | A (>90% degradation (24 hr treatment)) | A (>90% degradation (24 hr treatment)) | – | – | – | – |
| N#Cc1ccc(O[C@H]2CCC[C@H](NC(=O)c3ccc(N4CCC(N5CCN(c6ccc7c(c6)C(=O)N(C6CCC(=O)NC6=O)C7=O)CC5)CC4)cc3)CCC2)cc1Cl (some centres unmarked) [compound 228, N-((1r,5r)-5-(3-chloro-4-cyanophenoxy)cyclooctyl)-4-(4-(4-(2-(2,6-dioxopiperidin-3-yl)-1,3-dioxoisoindolin-5-yl)piperazin-1-yl)piperidin-1-yl)benzamide] | – | – | 12% | 21% | 51% | 47% |
